This note sets out measurements from patent publication US12509451B2, “Heteroaryl amide inhibitors of CD38” (NAPA THERAPEUTICS LTD., priority 2020, dated 2025).

The structures appear in SMILES notation.

Assay [1] concerns the target T1, CD38 NAD+ hydrolase activity in NH7-dCas9 cells (Jurkat clone) (Homo sapiens, UniProt P28907).
T1 construct: The assay utilized CD38 expressing NH7-dCas9 cells (Jurkat clone); host or cells: NH7-dCas9 cells (Jurkat clone)
T1 sequence (P28907 1-300): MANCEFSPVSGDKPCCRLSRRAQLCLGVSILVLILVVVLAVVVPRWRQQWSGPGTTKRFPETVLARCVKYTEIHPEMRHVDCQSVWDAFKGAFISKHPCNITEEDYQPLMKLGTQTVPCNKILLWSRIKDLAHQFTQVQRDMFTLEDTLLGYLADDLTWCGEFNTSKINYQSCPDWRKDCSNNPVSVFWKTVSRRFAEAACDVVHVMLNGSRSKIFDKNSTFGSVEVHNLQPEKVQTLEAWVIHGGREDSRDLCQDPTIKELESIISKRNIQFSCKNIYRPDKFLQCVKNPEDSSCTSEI
Briefly: Fluorescence-based NAD+ hydrolase activity assay with human T cell line NH7-dCas9 cells-Jurkat clone (Assay 1). The note with it: read-out: Assay 1 Arithmetic mean IC50. An outline of the steps:
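Intact Jurkat NH7-dCas9 cells (1×10^6/well in PBS) exposed to eight final compound concentrations, 400 nM to 25.6 pM. Reaction started with 80 μM etheno-NAD+; fluorescence (ex 321, em 410 nm) read each minute for 1 h at 37 °C; rate from linear slope, IC50 from three independent experiments.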

Assay [2] addresses T2, recombinant mouse CD38 Protein (Mus musculus, UniProt P56528).
T2 construct: purchased R&D System
T2 sequence (P56528 1-304): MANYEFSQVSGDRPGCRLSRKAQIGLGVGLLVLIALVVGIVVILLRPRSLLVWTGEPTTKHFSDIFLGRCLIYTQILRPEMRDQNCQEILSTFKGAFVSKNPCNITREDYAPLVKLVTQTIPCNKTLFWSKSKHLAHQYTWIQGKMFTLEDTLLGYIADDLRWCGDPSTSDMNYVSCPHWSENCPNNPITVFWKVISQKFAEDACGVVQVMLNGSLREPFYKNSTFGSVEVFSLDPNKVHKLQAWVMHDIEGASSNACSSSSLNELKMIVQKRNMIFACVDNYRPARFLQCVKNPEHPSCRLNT
As to the kind of experiment: Fluorescence-based NAD+ hydrolase activity assay with mouse recombinant CD38 protein (Assay 5). The following applies: read-out: Assay 5 Arithmetic mean IC50. The class given is biochemical. In outline: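 Recombinant mouse CD38 (2.5 ng/well) in 0.25 M sucrose, 40 mM Tris pH 7.4, with compound at 8 final concentrations from 400 nM to 25.6 pM; reaction started with 80 µM etheno-NAD+. Fluorescence (ex 321, em 410 nm) read each minute for 1 h at 37 °C; activity as linear slope, IC50 from 3 independent experiments.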

Take `Cn1cncc1-c1cccc(C(=O)Nc2cccnc2)n1` [Compound 42, 6-(1-methyl-1H-imidazol-5-yl)-N-(pyridin-3-yl)picolinamide]: the IC50 in assay [1] and in assay [2] was 1 to 50 nM each time.

Regarding `Cn1cncc1-c1cccc(C(=O)Nc2ccc(C(F)(F)F)nc2)n1` [Compound 43], the IC50 is below 1 nM in assay [1] and 1 to 50 nM in assay [2].

Turning to `Cc1cc(C(=O)Nc2ccncc2)nc(-c2nccn2C)c1` [Compound 45], the IC50 in assay [1] and in assay [2] was below 1 nM throughout.

On to `Cn1ccnc1-c1cccc(C(=O)Nc2ccc(C(F)(F)F)nc2)n1` [Compound 47], for which the IC50 in assay [1] was below 1 nM; in assay [2] it was 1 to 50 nM.

With `Cn1ccnc1-c1cccc(C(=O)Nc2cccnc2)n1` [Compound 48], the IC50 in assay [1] and in assay [2] was 1 to 50 nM in each case.

Consider `Cc1cc(C(=O)Nc2cccnc2)nc(-n2ccnc2)n1` [Compound 49, 2-(1H-imidazol-1-yl)-6-methyl-N-(pyridin-3-yl)pyrimidine-4-carboxamide], for which the IC50 in assay [1] and in assay [2] was below 1 nM in each case.

For the compound `Cc1cc(C(=O)Nc2ccncc2)nc(-n2ccnc2)n1` [Compound 50], the IC50 in assay [1] and in assay [2] was below 1 nM each time.

For the compound `Cc1cc(C(=O)Nc2ccncc2)nc(-n2ccnc2)c1` [Compound 52, 6-(1H-imidazol-1-yl)-4-methyl-N-(pyridin-4-yl)picolinamide], the IC50 in assay [1] and in assay [2] was below 1 nM in each case.

On to `Cc1cc(C(=O)Nc2cccnc2)nc(-n2ccnc2)c1` [Compound 53], for which the IC50 in assay [1] and in assay [2] was below 1 nM in each case.

As to `Cc1cc(C(=O)Nc2ccc(C(N)=O)nc2)nc(-n2ccnc2)c1` [Compound 54, N-(6-carbamoylpyridin-3-yl)-6-(1H-imidazol-1-yl)-4-methylpicolinamide], the IC50 in assay [1] and in assay [2] was below 1 nM throughout.

For the compound `Cc1cc(C(=O)Nc2ccnc(C(N)=O)c2)nc(-n2ccnc2)c1` [Compound 55], the IC50 in assay [1] and in assay [2] was below 1 nM each time.

On to `CNC(=O)c1cc(NC(=O)c2cc(C)cc(-n3ccnc3)n2)ccn1` [Compound 56], for which the IC50 in assay [1] and in assay [2] was below 1 nM each time.

As to `CNC(=O)c1ccc(NC(=O)c2cc(C)cc(-n3ccnc3)n2)cn1` [Compound 57], the IC50 in assay [1] and in assay [2] was below 1 nM in each case.

`Cc1ccc(-n2ccnc2)nc1C(=O)Nc1cccnc1` [Compound 59, 6-(1H-imidazol-1-yl)-3-methyl-N-(pyridin-3-yl)picolinamide]: the half-inhibitory concentration (IC50) in assay [1] and in assay [2] was 1 to 50 nM in each case.

`O=C(Nc1cccnc1)c1ccc(F)c(-n2ccnc2)n1` [Compound 61]: the IC50 in assay [1] and in assay [2] was 1 to 50 nM in each case.

As to `O=C(Nc1cccnc1)c1nc(-n2ccnc2)ccc1F` [Compound 62], the IC50 in assay [1] and in assay [2] was 1 to 50 nM in each case.

With `Nc1cc(C(=O)Nc2cccnc2)nc(-n2ccnc2)c1` [Compound 67], the IC50 in assay [1] is below 1 nM; in assay [2] it was 1 to 50 nM.
